{
  "source": "patent US5409946A",
  "about": "“Isoxazole, isothiazole and pyrazole compounds that enhance cognitive function” (Abbott Laboratories, priority 1993, dated 1995)",
  "origin": "cited, not measured here",
  "key": {"[1]": {"system": "cognitive function", "details": "acutely and chronically administered; cited from earlier work"}, "[2]": {"system": "signs and symptoms of nicotine withdrawal", "details": "double-blind studies; cited from earlier work"}, "[3]": {"system": "nicotinic receptors", "details": "chronic administration, without affecting affinity; cited from earlier work"}, "[4]": {"details": "cited from earlier work"}},
  "data": [
    {"compound": "CN1CCCC1c1cccnc1", "note": "(centres unmarked) [nicotine]", "values": [
      {"measurement": "effect on cognitive function", "setting": "[1]", "value": "enhances cognitive function in rats"},
      {"measurement": "suppression of withdrawal signs and symptoms versus placebo", "setting": "[2]", "value": "far superior to a placebo"},
      {"measurement": "up-regulation of number of receptors", "setting": "[3]", "value": "50-100%"},
      {"measurement": "pharmacokinetics", "setting": "[4]; in vivo", "value": "unfavorable pharmacokinetics"},
      {"measurement": "oral bioavailability", "setting": "[4]; oral", "value": "poor oral bioavailability"}
    ]}
  ]
}
